# Legend:
# DSS colitis mouse model = experiment: Dextran sodium sulfate (DSS)-induced ulcerative colitis mouse model; type: in vivo, C57BL/6 mice; conditions: oral once a day Day 0 to Day 6, 2% DSS drinking water
# Procedure: Adult C57BL/6 mice were used in this assay. The day on which 2% DSS drinking water started was defined as Day 0. A DSS solution was placed in a transparent plastic water bottle, and the mice were allowed to freely drink from Day 0 to Day 7 via a metal nozzle to induce ulcerative colitis. The test substance was orally administered once a day at a dose of 10 mL/kg for 7 days from Day 0 to Day 6. Stool conditions were observed every day from Day 0 to Day 7, and a disease activity index (DAI) was evaluated according to a reference score (Diarrhea score 0: normal stool, 1: loose stool, 2: diarrhea stool, 3: watery stool. Bloody stool score 0: normal stool, 1: brown mild bloody stool, 2: reddish color in stool, 3: melena); DAI score = diarrhea score + bloody stool score […].
# The compounds of the present disclosure were tested in this assay. Efficacy in this model is evidenced by a decrease in the DAI score when compared to that of vehicle-treated animals (control group).
# [1] = tested on: rat circulatory organ (blood pressure and heart rate); experiment: Rat po circulatory organ evaluation test (blood pressure and heart rate); conditions: for safety margin (dose basis): rat no observed effect level compared with the effective amount in the mouse model of DSS-induced colitis; for no observed effect level on the rat circulatory organ (blood pressure and heart rate): single oral administration, unrestrained, awake rats
# Excerpt: Regarding an action on the rat circulatory organ under unrestrained conditions and awakening, the test substance was orally administered once to Crl:CD (SD) male rats (4 animals/group) implanted with a telemetry transmitter (HD-S10, Data Sciences International, Inc.) or catheterized in the left carotid artery, and blood pressure (systolic, diastolic, and mean blood pressure) and heart rate were continuously measured.
# [2] = tested on: monkey circulatory organ (blood pressure and heart rate); experiment: Monkey po telemetry test (blood pressure and heart rate); conditions: for safety margin (dose basis): monkey no observed effect level compared with the effective amount in the mouse model of DSS-induced colitis; for no observed effect level on the monkey circulatory organ (blood pressure and heart rate): single oral administration, unrestrained, awake cynomolgus monkeys
# Procedure: Regarding an action on the monkey circulatory organ under unrestrained conditions and awakening, the test substance was orally administered once to male cynomolgus monkeys (2 animals/dose) implanted with a telemetry transmitter (M11, Data Sciences International, Inc.), and blood pressure (systolic, diastolic, and mean blood pressure) and heart rate were continuously measured. The evaluation time point was set to before administration, 0.5, 1, 2, 4, 8, 10, 12, 16, or 24 hours after administration, and the average value for 1 minute at the evaluation time point was analyzed.
Compound,suppression of the control group score (DAI score) (DSS colitis mouse model; 0.3 mpk) [%],safety margin (dose basis) [1] [times],no observed effect level on the rat circulatory organ (blood pressure and heart rate) [1] [mg/kg],safety margin (dose basis) [2] [times],no observed effect level on the monkey circulatory organ (blood pressure and heart rate) [2] [mg/kg],suppression of the control group score (DAI score) (DSS colitis mouse model; 3 mpk) [%],suppression of the control group score (DAI score) (DSS colitis mouse model; 1 mpk) [%]
"CN(CCCCC[C@H](O)/C=C/[C@H]1CCC(=O)N1CCSc1nc(C(=O)NCCS(=O)(=O)O)cs1)c1ccccc1 [2-({[2-({2-[(2R)-2-{(1E,3S)-3-Hydroxy-8-[methyl(phenyl)amino]-1-octen-1-yl}-5-oxo-1-pyrrolidinyl]ethyl}thio)-1,3-thiazol-4-yl]carbonyl}amino)ethanesulfonic acid]",50,100,30,10,3,,
"O=C(CCCSCCN1C(=O)CC[C@@H]1/C=C/[C@@H](O)Cc1cccc(NC(=O)c2ccccc2)c1)NCCS(=O)(=O)O [2-{[4-({2-[(2R)-2-{(1E,3S)-4-[3-(Benzoylamino)phenyl]-3-hydroxy-1-buten-1-yl}-5-oxo-1-pyrrolidinyl]ethyl}thio)butanoyl]amino}ethanesulfonic acid]",,10,30,,,50,
"O=C(O)c1csc(SCCN2C(=O)CC[C@@H]2/C=C/[C@@H](O)CCCCCSc2ccccn2)n1 [Example 1, 2-[(2-{(2R)-2-[(1E,3S)-3-Hydroxy-8-(2-pyridinylthio)-1-octen-1-yl]-5-oxo-1-pyrrolidinyl}ethyl)thio]-1,3-thiazole-4-carboxylic acid]",50,,,,,,
"CN(CCCCC[C@H](O)/C=C/[C@H]1CCC(=O)N1CCSc1nc(C(=O)O)cs1)c1ccccc1 [Example 2, 2-({2-[(2R)-2-{(1E,3S)-3-Hydroxy-8-[methyl(phenyl)amino]-1-octen-1-yl}-5-oxo-1-pyrrolidinyl]ethyl}thio)-1,3-thiazole-4-carboxylic acid]",50,,,,,,
"O=C(O)CCCSCCN1C(=O)CC[C@@H]1/C=C/[C@@H](O)Cc1cccc(NC(=O)c2ccccc2)c1 [Example 10, 4-({2-[(2R)-2-{(1E,3S)-4-[3-(Benzoylamino)phenyl]-3-hydroxy-1-buten-1-yl}-5-oxo-1-pyrrolidinyl]ethyl}thio)butanoic acid]",,,,,,,50
"O=C(NCCS(=O)(=O)O)c1csc(SCCN2C(=O)CC[C@@H]2/C=C/[C@@H](O)CCCCCSc2ccccn2)n1 [Example 11, 2-[({2-[(2-{(2R)-2-[(1E,3S)-3-Hydroxy-8-(2-pyridinylthio)-1-octen-1-yl]-5-oxo-1-pyrrolidinyl}ethyl)thio]-1,3-thiazol-4-yl}carbonyl)amino]ethanesulfonic acid]",50,100,30,1,0.3,,
COc1nccnc1SCCCCC[C@H](O)/C=C/[C@H]1CCC(=O)N1CCSc1nc(C(=O)NCCS(=O)(=O)O)cs1 [Example 12],,10,30,10,30,50,

# — patent EP4818154A1, “EP4 AGONIST” (ONO Pharmaceutical Co., Ltd., priority 2023, dated 2025)
